Source: publication PMC11714206, “Massively Parallel Screening of Toll/Interleukin‐1 Receptor (TIR)‐Derived Peptides Reveals Multiple Toll‐Like Receptors (TLRs)‐Targeting Immunomodulatory Peptides” (Advanced Science, 2024)
Blank lines part the entries; values can stand above or below the sequence they belong to.

Target: T1, MyD88^TIR (Homo sapiens, UniProt Q99836)
T1 construct: MyD88 (residues 148–296); 6xHis; made in house; host or cells: E. coli BL21 (DE3)
Assay: T‐Surf phage library (P8 and P3) selection against MyD88^TIR, four rounds, NGS read counts
Type: binding
Details: for P3_MyD88 Rank (after) / P3_MyD88 Rank (before): P3 library; for Population: 4th round of selection against MyD88 TIR, share of NGS reads; for P8_MyD88 Rank (after) / P8_MyD88 Rank (before): P8 library
Procedure, shortened: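 P8 and P3 T‐Surf libraries panned against plate-coated TIR domains (5 µg mL^−1), 1 h binding at RT, acid elution and TG1/helper-phage amplification per round. After four rounds, pools were PCR-barcoded and sequenced (NovaSeq, 100 bp paired-end, Phred ≥30); peptides ranked by read counts.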

[1] = P8_MyD88: rank by count after grouping
[2] = P8_MyD88: rank by count before grouping
[3] = selection against MyD88, rank after grouping
[4] = selection against MyD88, rank before grouping
[5] = P3_MyD88 pool: P3 T-Surf phage library
[6] = P8_MyD88 pool: P8 T-Surf phage library
[7] = selection against MyD88 TIR, rank by count after grouping
[8] = selection against MyD88 TIR, rank by count before grouping
[9] = 4R selection against MyD88, rank after grouping
[10] = 4R selection against MyD88, rank before grouping
[11] = P8_MyD88: rank by NGS read count after grouping
[12] = P8_MyD88: rank by NGS read count before grouping
[13] = P3_MyD88: rank by count after grouping
[14] = P3_MyD88: rank by count before grouping
[15] = selection against MyD88, rank by count after grouping
[16] = selection against MyD88, rank by count before grouping

T1 sequence (Q99836 148-296): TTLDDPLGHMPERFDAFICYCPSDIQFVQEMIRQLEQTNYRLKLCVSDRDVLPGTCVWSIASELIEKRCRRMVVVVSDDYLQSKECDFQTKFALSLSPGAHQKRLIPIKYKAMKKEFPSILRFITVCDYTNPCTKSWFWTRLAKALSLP

Rank (after) [1]: 455 | Rank (before) [2]: 3496
Sequence: PQELEWFHKRLVRLIL

Population [5]: 0.00291%
Sequence: SSFREGLWRLLELSKR

P8_MyD88 Rank (after) [7]: 255 | P8_MyD88 Rank (before) [8]: 2732
Sequence: DPQDLAWSYERLVSLF

P8_MyD88 Rank (after) [3]: 541 | P8_MyD88 Rank (before) [4]: 3759
Sequence: SLLYDHLRWLGIRAFL

P3_MyD88 Rank (after) [9]: 623 | P3_MyD88 Rank (before) [10]: 1538
Sequence: YAFTGQLNQYLVQRGV

Rank (after) [11]: 976 | Rank (before) [12]: 1390
Sequence: WVLHKVLQILHAREIY

Rank (after) [13]: 409 | Rank (before) [14]: 2224
Sequence: EIVKFVLAKLVHLEHP

Rank (after) [11]: 933 | Rank (before) [12]: 3097
Sequence: DSLFWDRLLYSLQFTE

Population [6]: 0.00732%
Sequence: DSLFWDRLLYSLHVTD

Rank (after) [13]: 429 | Rank (before) [14]: 1711
Sequence: YTAMTNSGFHTFRGND

P3_MyD88 Rank (after) [9]: 657 | P3_MyD88 Rank (before) [10]: 2012
Sequence: DHHLDLPRGKALTPEILG

Population [6]: 0.02%
Sequence: DPQDLDWFYERLVSLFL

Rank (after) [1]: 114 | Rank (before) [2]: 570
Sequence: DPQDLDWFYEHLVSLL

Rank (after) [13]: 453 | Rank (before) [14]: 3276
Sequence: SSICEGLWRLLELSKK

P3_MyD88 Rank (after) [15]: 676 | P3_MyD88 Rank (before) [16]: 3585
Sequence: KWLWEKRTCGHSRNTA

Rank (after) [11]: 1003 | Rank (before) [12]: 3187
Sequence: ELDFSHFWLFDGHATGAA

P8_MyD88 Rank (after) [9]: 668 | P8_MyD88 Rank (before) [10]: 2317
Sequence: AWVWEYLLPNLVGPAG

Rank (after) [11]: 989 | Rank (before) [12]: 1854
Sequence: YASSSWYLAELVHMPW

Rank (after) [1]: 467 | Rank (before) [2]: 2944
Sequence: DPQDLQSLYEGLVSLV

Rank (after) [13]: 122 | Rank (before) [14]: 3476
Sequence: NQWRNSRTAAANLSGW

P8_MyD88 Rank (after) [9]: 586 | P8_MyD88 Rank (before) [10]: 1640
Sequence: WDYASNVELFWGRMNY

P3_MyD88 Rank (after) [3]: 544 | P3_MyD88 Rank (before) [4]: 3171
Sequence: SSFREGLWRLLELSQN

Rank (after) [1]: 125 | Rank (before) [2]: 134 | Population [6]: 0.0131%
Sequence: NLSGWHILDGFLFDEF

Population [5]: 0.00291%
Sequence: NQWRNALTAAANLA

The remaining lines, values behind:

Sequence: YLRWGYPWFGDRLRFA
P3_MyD88 Rank (after) [3]: 539 | P3_MyD88 Rank (before) [4]: 1562

Sequence: YYFTDWDSEAEIIQKM
Rank (after) [1]: 112 | Rank (before) [2]: 118 | Population [6]: 0.02%

Sequence: DPQDQEWLYERLFSQM
P8_MyD88 Rank (after) [9]: 619 | P8_MyD88 Rank (before) [10]: 2971

Sequence: PHDLDWLYERPVRLIL
Rank (after) [11]: 980 | Rank (before) [12]: 3412

Sequence: SDLRVVEDGSVSPLEM
Rank (after) [13]: 104 | Rank (before) [14]: 1178

Sequence: DYANSSWALDELWLIL
P8_MyD88 Rank (after) [3]: 510 | P8_MyD88 Rank (before) [4]: 2544

Sequence: DLVWDYLLPNLEGPAG
Population [6]: 0.00886%

Sequence: LKVERWRQSLEKAGKL
P3_MyD88 Rank (after) [7]: 217 | P3_MyD88 Rank (before) [8]: 2522

Sequence: DPQDLDWFYERLFSQT
P8_MyD88 Rank (after) [7]: 269 | P8_MyD88 Rank (before) [8]: 2858

Sequence: YASSSWALDELWLILEQR
Rank (after) [11]: 961 | Rank (before) [12]: 1883

Sequence: ELDFSHFWLFDGQAT
P8_MyD88 Rank (after) [7]: 218 | P8_MyD88 Rank (before) [8]: 358

Sequence: NYASSSWALDELLRILY
Rank (after) [1]: 155 | Rank (before) [2]: 238

Sequence: DPHQHQAFWDRLWEKL
P8_MyD88 Rank (after) [7]: 286 | P8_MyD88 Rank (before) [8]: 560

Sequence: TSHLHRAWRLNELRTY
P3_MyD88 Rank (after) [7]: 284 | P3_MyD88 Rank (before) [8]: 3294

Sequence: LGYHWKEWEHFVGIED
Rank (after) [11]: 1028 | Rank (before) [12]: 3310

Sequence: ALLKKLDSGFSEEKLL
P3_MyD88 Rank (after) [7]: 267 | P3_MyD88 Rank (before) [8]: 1950

Sequence: MVGGDTFHDFLDIISM
P8_MyD88 Rank (after) [9]: 655 | P8_MyD88 Rank (before) [10]: 3677

Sequence: ENYAFSSWALGELLHI
P8_MyD88 Rank (after) [7]: 192 | P8_MyD88 Rank (before) [8]: 247

Sequence: LKVEIWLQTLEKAEKP
Rank (after) [13]: 440 | Rank (before) [14]: 2472

Sequence: NYGSNSWALNELLEIL
Population [6]: 0.00848%

Sequence: THSHNAVPAAANLSGW
Rank (after) [13]: 404 | Rank (before) [14]: 3289

Sequence: PKVGSWRQALEKAGKL
P3_MyD88 Rank (after) [3]: 560 | P3_MyD88 Rank (before) [4]: 2763

Sequence: LNVESWRKALEKAGKL
P3_MyD88 Rank (after) [7]: 230 | P3_MyD88 Rank (before) [8]: 2403

Sequence: YLLAGDFWIFFTLLTA
P8_MyD88 Rank (after) [15]: 738 | P8_MyD88 Rank (before) [16]: 1964

Sequence: YASSSWYLDELVRSLW
Rank (after) [11]: 897 | Rank (before) [12]: 1860

Sequence: DWVWDYLLPKLECPSG
P8_MyD88 Rank (after) [9]: 579 | P8_MyD88 Rank (before) [10]: 2447

Sequence: DHHLNLPRGKSVKPEILG
P3_MyD88 Rank (after) [9]: 652 | P3_MyD88 Rank (before) [10]: 2057
